Results as given in US20230076733A1, “Combination Therapy” (AGENCY FOR SCIENCE, TECHNOLOGY AND RESEARCH, priority 2020, published 2023).
Values joined by “and” are separate entries in the source; they are usually repeats but may differ in a detail not shown here. Identical values can stand only once.

What was measured:
[1] = tested on: PA-TU-8988T cells; experiment: soft agar colony formation assay, PA-TU-8988T cells; format: cell-based; conditions: for IC50: PA-TU-8988T cells, pre-determined by dose-response assay; for Colony count: PA-TU-8988T, duplicate wells
Protocol: The IC50 and EC50 values for each combination partner (a) and (b) with the specific cell lines are determined from the response plot. A dose-response assay for each combination partner and the combination at different concentrations based on the IC50 values of each combination partner was performed. Computed EC50-EC95 values were then generated by a software (as disclosed herein) based on the drug concentration and the respective colony growth numbers. 6. Cell lines used and number of cells seeded per well [table] (1) Base Layer—0.6% Agar per 300 μL per well. Microwave the agar for 1-2 min so that it is completely melted. Add 5.4 ml of the melted agar into 21.6 ml of pre-warmed media (All media and agar preparation is made in excess for 2.5 plates). Aliquot 300 μl of the suspension into each well, avoiding the first and last columns of the plates. Fill the first and last columns of wells with 500 μl of sterile water or phosphate buffered saline. Incubate the plates in 37° C. incubator for 45 min-1 hr to allow agar to solidify. (2) Middle Layer— 0.3% Agar plus corresponding number of cells per well Trypsinize the adherent cells and suspend them in 5 ml of media. Determine the number of cells in the suspension and calculate the volume of cell suspension required for seeding. Mix the agar and media together first, excluding the volume of cell suspension. Add the cell suspension last into the mixture. Mix well and aliquot 250 μl into each well containing the base layer. Incubate the plates in a 37° C. incubator for 1-1.5 hrs to allow the agar to solidify. […] Prepare the required concentration of compounds based on the IC50 values of each drug. (Pre-determine the IC50 values for each drug with the corresponding cell-line using a dose-response assay) Row A& B: Aliquot 250 μl of diluted Drug A per well Row C&D: Aliquot 250 μl of diluted Drug B per well Row E& F: Aliquot 250 μl of diluted Drug A and B mixed at 1:1 ratio for each well Assay Results Analysis Method • 1. Score the colonies after 2 to 3 weeks depending on the colony forming status for different cell line. • 2. Before scoring the colonies, add 35 μl MTT (5 mg/ml) to the wells with cells and incubate at 37° C. for 2-3 hrs depending on the intensity of colour development. • 3. Once the colonies are stained, count the total number of colonies formed using the Oxford Optronix GelCount® instrument. • 4. Average the total number of colonies obtained for each drug dose point and represent it as a fraction over the control. This represents the fraction of colony growth. […] Incorporate the fraction of inhibition and the corresponding dose values into the Chou Talalay Software available online (http://www.combosyn.com/) to obtain the combination index values. • 6. The combination index values will give an indication as to whether the combined drugs are synergistic, antagonistic or additive in the treated cells, as shown in Table 2 below. FIG. 12 illustrates a dose-response assay plate containing PA-TU-8988T cells (Test 1) after testing compounds at different concentrations based on the IC50 values of each compound. […] is a cell line established from pancreatic adenocarcinoma (pancreatic cancer).

[2] = tested on: MCAS cells; experiment: soft agar colony formation assay, MCAS cells; format: cell-based; conditions: for IC50: MCAS cells, pre-determined by dose-response assay; for Colony count: MCAS, duplicate wells
Protocol: The IC50 and EC50 values for each combination partner (a) and (b) with the specific cell lines are determined from the response plot. A dose-response assay for each combination partner and the combination at different concentrations based on the IC50 values of each combination partner was performed. Computed EC50-EC95 values were then generated by a software (as disclosed herein) based on the drug concentration and the respective colony growth numbers.
6. Cell lines used and number of cells seeded per well
(1) Base Layer—0.6% Agar per 300 μL per well.
Microwave the agar for 1-2 min so that it is completely melted. Add 5.4 ml of the melted agar into 21.6 ml of pre-warmed media (All media and agar preparation is made in excess for 2.5 plates). Aliquot 300 μl of the suspension into each well, avoiding the first and last columns of the plates. Fill the first and last columns of wells with 500 μl of sterile water or phosphate buffered saline. Incubate the plates in 37° C. incubator for 45 min-1 hr to allow agar to solidify.
(2) Middle Layer— 0.3% Agar plus corresponding number of cells per well
Trypsinize the adherent cells and suspend them in 5 ml of media. Determine the number of cells in the suspension and calculate the volume of cell suspension required for seeding. Mix the agar and media together first, excluding the volume of cell suspension. Add the cell suspension last into the mixture. Mix well and aliquot 250 μl into each well containing the base layer. Incubate the plates in a 37° C. incubator for 1-1.5 hrs to allow the agar to solidify.
Prepare the required concentration of compounds based on the IC50 values of each drug.
(Pre-determine the IC50 values for each drug with the corresponding cell-line using a dose-response assay)
Row A& B: Aliquot 250 μl of diluted Drug A per well
Row C&D: Aliquot 250 μl of diluted Drug B per well
Row E& F: Aliquot 250 μl of diluted Drug A and B mixed at 1:1 ratio for each well
Assay Results Analysis Method • 1. Score the colonies after 2 to 3 weeks depending on the colony forming status for different cell line. • 2. Before scoring the colonies, add 35 μl MTT (5 mg/ml) to the wells with cells and incubate at 37° C. for 2-3 hrs depending on the intensity of colour development. • 3. Once the colonies are stained, count the total number of colonies formed using the Oxford Optronix GelCount® instrument. • 4. Average the total number of colonies obtained for each drug dose point and represent it as a fraction over the control. This represents the fraction of colony growth. […] Incorporate the fraction of inhibition and the corresponding dose values into the Chou Talalay Software available online (http://www.combosyn.com/) to obtain the combination index values. • 6.
MCAS is a cell line established from ovarian mucinous cystadenocarcinoma (ovarian cancer).

[3] = Test 1, 0.25x IC50: dose Olaparib 0.2525, Ex 1 0.275, combination both 1:1
[4] = Test 1, 0.5x IC50: dose Olaparib 0.505, Ex 1 0.55, combination both 1:1
[5] = Test 1, 1x IC50: dose Olaparib 1.01, Ex 1 1.1, combination both 1:1
[6] = Test 1, 2x IC50: dose Olaparib 2.02, Ex 1 2.2, combination both 1:1
[7] = Test 1, 4x IC50: dose Olaparib 4.04, Ex 1 4.4, combination both 1:1
[8] = Test 2, 0.25x IC50: dose Olaparib 0.2525, Ex 1 0.275, combination both 1:1
[9] = Test 2, 0.5x IC50: dose Olaparib 0.505, Ex 1 0.55, combination both 1:1
[10] = Test 2, 1x IC50: dose Olaparib 1.01, Ex 1 1.1, combination both 1:1
[11] = Test 2, 2x IC50: dose Olaparib 2.02, Ex 1 2.2, combination both 1:1
[12] = Test 2, 4x IC50: dose Olaparib 4.04, Ex 1 4.4, combination both 1:1
[13] = Test 1, 0.25x IC50: dose Olaparib 0.99475, Ex 1 0.07175, combination both 1:1
[14] = Test 1, 0.5x IC50: dose Olaparib 1.9895, Ex 1 0.1435, combination both 1:1
[15] = Test 1, 1x IC50: dose Olaparib 3.979, Ex 1 0.287, combination both 1:1
[16] = Test 1, 2x IC50: dose Olaparib 7.958, Ex 1 0.574, combination both 1:1
[17] = Test 1, 4x IC50: dose Olaparib 15.918, Ex 1 1.148, combination both 1:1
[18] = Test 2, 0.25x IC50: dose Olaparib 0.99475, Ex 1 0.07175, combination both 1:1
[19] = Test 2, 0.5x IC50: dose Olaparib 1.9895, Ex 1 0.1435, combination both 1:1
[20] = Test 2, 1x IC50: dose Olaparib 3.979, Ex 1 0.287, combination both 1:1
[21] = Test 2, 2x IC50: dose Olaparib 7.958, Ex 1 0.574, combination both 1:1
[22] = Test 2, 4x IC50: dose Olaparib 15.916, Ex 1 1.148, combination both 1:1

IC50 [2] [nM] | Structure (SMILES) | Colony count [1, 3] | Colony count [1, 4] | Colony count [1, 5] | Colony count [1, 6] | Colony count [1, 7] | Colony count [1, 8] | Colony count [1, 9] | Colony count [1, 10] | Colony count [1, 11] | Colony count [1, 12] | Colony count [2, 13] | Colony count [2, 14] | Colony count [2, 15] | Colony count [2, 16] | Colony count [2, 17] | Colony count [2, 18] | Colony count [2, 19] | Colony count [2, 20] | Colony count [2, 21] | other results
287 | Cn1c(=O)c2c(ncn2CC(=O)Nc2ccc(-c3ccccc3)nn2)n(C)c1=O [Ex 1, 2-(1,3-dimethyl-2,6-dioxo-2,3-dihydro-1H-purin-7 (6H)-yl)-N-(6-phenylpyridazin-3-yl)acetamide] | 420 and 494 | 343 and 488 | 215 and 393 | 250 and 311 | 212 and 296 | 200 and 237 | 143 and 227 | 156 and 209 | 155 and 215 | 125 and 186 | 598 and 557 | 462 and 445 | 301 and 328 | 252 and 273 | 147 and 151 | 976 and 921 | 744 and 875 | 694 and 706 | 644 and 588 | IC50 [1]: 1100 nM; Colony count [2, 22]: 419 and 326
3980 | O=C(c1cc(Cc2n[nH]c(=O)c3ccccc23)ccc1F)N1CCN(C(=O)C2CC2)CC1 [Olaparib, reference compound] | 537 and 426 | 425 and 331 | 398 and 327 | 411 and 325 | 362 and 307 | 222 and 170 | 180 and 155 | 146 and 150 | 136 and 143 | 180 and 125 | 429 and 425 | 363 and 402 | 273 and 227 | 188 and 141 | 112 and 97 | 951 and 929 | 741 and 668 | 393 and 359 | 155 | IC50 ([1]; Homo sapiens, PaTu 8988t): 1010 nM; Colony count [2, 22]: 85 and 82
